Legend:
[1] = test system: Leukemia L1210; experiment: Therapeutic activity against leukemia L1210 implanted i.p. in mice; assay type: in vivo
Excerpt: (§1) Inhibition of DNA polymerase is considered to be responsible for the biologic activity of AraA. The levels of F-AraATP attainable in leukemia L1210 cells in mice from the administration of 2-F-AraA are much higher than the level of AraATP atainable in these cells after administration of AraA. As a result of the maintenance of these levels of the inhibitor, F-AraATP, in them, the leukemia cells are effectively destroyed in animals. […] 2-F-AraA was also active against leukemia L1210 when administered by the oral route.
^a 10^5 L1210 ascites cells implanted i.p. on day 0.
^b Treatments reported were selected from a range of dose levels from
lethally toxic to apparently nontoxic.
more than 16% (1/6 treated mice) dying without gross evidence of
progressive leukemia (splenomegaly), except those treated orally, in whic
^c i.p. = intraperitoneal; oral = drug administered directly into
^d % ILS = % increase in life span, compared to untreated control;
excluding 60day survivors.
^e Based on median day of death in dying animals only. Figures in
parentheses based on % survivors.
2-F-AraA was given i.p. or orally on the basis of average mouse body weight. Therapeutic activity based on observed increase in median life span of treated animals over untreated controls and on estimates of the number of viable L1210 cells present at the end of treatment is summarized in Table 2.

[2] = background statement; cited from earlier work
[3] = test system: leukemias; conditions: background statement; cited from earlier work
[4] = test system: adenosine deaminase; conditions: cited from earlier work
[5] = test system: DNA polymerase; experiment: Inhibition of DNA polymerase by the triphosphate; assay type: biochemical; conditions: triphosphate compared with Ara-ATP
Excerpt: as §1

| Structure (SMILES) | activity against leukemia L1210 ([1]; AraA under similar conditions) | leukemia cells at the end of treatment ([1]; AraA, 10^5 cells at the beginning) | therapeutic activity against L1210 leukemia ([1]; in the absence of adenosine deaminase inhibitors) | antiviral activity [2] | antileukemic activity [3] | deamination of AraA in vivo to AraH [4] | inhibition of DNA polymerase [5] |
| --- | --- | --- | --- | --- | --- | --- | --- |
| Nc1ncnc2c1ncn2[C@@H]1O[C@H](CO)[C@@H](O)[C@@H]1O [AraA, 9-β-D-arabinofuranosyladenine, reference compound] | essentially devoid of activity | 3×10^8 cells | no significant therapeutic activity | potent antiviral agent | little potential | rapid deamination |  |
| O=c1[nH]cnc2c1ncn2[C@@H]1O[C@H](CO)[C@@H](O)[C@@H]1O [AraH, 9-β-D-arabinofuranosylhypoxanthine] |  |  |  | some antiviral | no antileukemic activity |  |  |
| Nc1nc(F)nc2c1ncn2[C@@H]1O[C@H](COP(=O)(O)OP(=O)(O)OP(=O)(O)O)[C@@H](O)[C@@H]1O [F-AraATP] |  |  |  |  |  |  | as potent an inhibitor of DNA polymerase as Ara-ATP |
